Test results taken from US6689813B2 (Biostatin Gyogyszerkutato-Fejleszto kft., priority 1998, dated 2004).
Where no end group is shown, it is not given here. [ ]: non-standard residue; d: D form.

Experiments:
[1] = tested on: Wistar rats; test: Analgetic action: vegetative (pseudoaffective) reflex responses to mustard oil and capsaicin under urethane anaesthesia; type: in vivo, rat; parameters: Increase in heart rate: unit not given here; conditions: 10 μg/kg i.p.
From the text: This test is based on the synchronous registration of several components of so-called pseudoaffective reflex responses, which can be induced on animals by pain-producing stimuli [Lim, R. K. S.: J. Comp. Neurol 118, 269-294 (1962)] under urethane anaesthesia.
A significant blood pressure increase of 45 mmHg as an average pressor response, heart rate increase of 85 (as an average) and hyperpnoea (the number of respirations increases by 61 per minute as an average) can be observed in control animals on the effect of strong chemonociceptive stimuli (painting of the lower limbs with 1% mustard oil or dropping a capsaicin solution of 100 μg/ml concentration into the eye) under urethane anaesthesia.
The blood pressure, heart rate and respiration of intact Wistar rats (5 to 7 animals in each group, with a body weight of 250 to 350 g) were continuously registered for 40 minutes through an arterial cannula as well as double ramifying trachea cannula. Ten minutes before beginning the measurement, the pretreated animals received intraperitoneally 10 μg/kg of somatostatin (SS), octreotide or TT-232, respectively. Both lower limbs of the animals were painted with mustard oil in the 3rd minute and capsaicin solution was dropped into their eyes in the 23rd minute. The vegetative responses given on these nociceptive stimuli were evaluated by using a specific computer program.

[2] = tested on: unanaesthetized animals; test: Mechanical nociceptive threshold, Randall-Selitto test after carrageenin; type: in vivo; conditions: 30 minutes after carrageenin
Description: The mechanical nociceptive threshold was investigated by using the Randall-Selitto test (Ugo Basil equipment) on unanaesthetized animals. Before the beginning of the experiment, the animals were tested several times to provide their adaptation to the experimental conditions. The animals received TT-232 in various concentrations (1.25, 2.5, 5, 10 μg i.v.) and after 15 minutes, carrageenin (0.1 ml of 1% solution) was injected into the plantar skin of the lower limbs of the animals.

In the case of “D-Phe-Cys-Tyr-D-Trp-Lys-Cys-Thr-NH2 ([dF]CY[dW]KCT-NH2; cysteine pairing not given here) [TT-232]”, the “protection against pseudoaffective reflex triad elicited by mustard oil and capsaicin (in words)” value ([1]; 10 minutes before mustard oil) is reported as “practically complete protection”, the “Increase in respiration rate” value ([1]; after dropping capsaicin solution into the eye, control 47.5) is reported as 17.85 per minute and the “Increase in mean arterial pressure” value ([1]; after dropping capsaicin solution into the eye, control 55) is reported as 13 mmHg. For the same substance, the “Increase in heart rate” value ([1]; after dropping capsaicin solution into the eye, control 143) was 22.88, the “Increase in mean arterial pressure” value ([1]; after painting the feet by mustard oil, control 45.4) was 4.86 mmHg and the “Increase in respiration rate” value ([1]; after painting the feet by mustard oil, control 60.75) was 12 per minute. The “Increase in heart rate” value ([1]; after painting the feet by mustard oil, control 84.8) was 13.71, the “increase in the nociceptive threshold (analgetic effect)” value (shortened to “increase in the nociceptive threshold”) ([2]; 1.25 μg i.v.) was 30% and the “increase in the nociceptive threshold” value ([2]; 2.5 μg i.v.) was 37%. For the same substance, the “increase in the nociceptive threshold” value ([2]; 5 μg i.v.) was 50% and the “increase in the nociceptive threshold” value ([2]; 10 μg i.v.) was 60%.
